Experimental data taken from patent US9179679B2, “Synergistic herbicidal composition containing penoxsulam and flazasulfuron” (Dow AgroSciences LLC, priority 2010, dated 2015).

Experiments:
Assay type in all cases: in vivo
[1] = system: black nightshade (Solanum nigrum, SOLNI); assay: Postemergence field trial #1, visual weed control in vines; conditions: France, 68 to 147 days after application, penoxsulam 7 and/or flazasulfuron 25 grams ai/ha; for SOLNI (2) Obs - percent control observed: Field trial #1, Echallat; for SOLNI (1) Obs - percent control observed: Field trial #1, Port A Binson
Experimental: (§1) These trials were conducted under field conditions in France. Trial sites were located in commercially grown vines of European grape (Vitis vinifera). The grapes were grown using normal cultural practices for fertilization, seeding, and maintenance to ensure good growth of the crop and the weeds. The trials were conducted using normal research methodology. Trial plots were between 2 to 4.5 meters (m) wide by 5.5 to 10 m long. All treatments were applied using a randomized complete block trial design with 3 or 4 replications per treatment. The trial sites had naturally occurring populations of weeds. The weed spectrum included, but was not limited to, black nightshade (Solanum nigrum, SOLNI), pigeongrass or foxtail millet (Setaria sp., SETSS), common lambsquarter (Chenopodium album, CHEAL), round-leaved cranesbill (Geranium rotundifolium, GERRT), common groundsel (Senecio vulgaris, SENVU), mallow (Malva L., MALSS) and common purslane (Portulaca oleracea, POROL).
(§2) Treatments consisted of tank mixes of an oil dispersion of penoxsulam and commercially available formulations of flazasulfuron (Katana herbicide, water dispersible granules) applied in water. The application volumes were between 150-325 liters per hectare (L/ha). All application were made using precision gas hand sprayers using a 2 or 3 m boom using flat fan (80° or 110°) nozzles to broadcast the treatments on the soil.
(§3) The treated plots and control plots were rated blind at various intervals after application. Ratings were based of Percent (%) Visual weed control, where 0 corresponds to no injury and 100 corresponds to complete kill.
(§4) Colby's equation was used to determine the herbicidal effects expected from the mixtures (Colby, S. R. Calculation of the synergistic and antagonistic response of herbicide combinations. Weeds 1967 15, 20-22).
(§5) The following equation was used to calculate the expected activity of mixtures containing two active ingredients, A and B: Expected=A+B−(A×B/100)
(§6) A=observed efficacy of active ingredient A at the same concentration as used in the mixture;
(§7) B=observed efficacy of active ingredient B at the same concentration as used in the mixture.

[2] = system: common lambsquarter (Chenopodium album, CHEAL); assay: as above; conditions: 68 to 147 days after application, penoxsulam 7 and/or flazasulfuron 25 grams ai/ha
Experimental: as §1, §2, §3, §4, §5, §6, §7

[3] = system: pigeongrass or foxtail millet (Setaria sp., SETSS); assay: as above; conditions: 68 to 147 days after application, penoxsulam 7 and/or flazasulfuron 25 grams ai/ha
Experimental: as §1, §2, §3, §4, §5, §6, §7

[4] = system: common groundsel (Senecio vulgaris, SENVU); assay: Postemergence field trial #2, visual weed control in vines; conditions: 118 to 158 days after application, penoxsulam 7 and/or flazasulfuron 25 grams ai/ha
Experimental: as §1, §2, §3, §4, §5, §6, §7

[5] = system: common purslane (Portulaca oleracea, POROL); assay: as above; conditions: 118 to 158 days after application, penoxsulam 7 and/or flazasulfuron 25 grams ai/ha
Experimental: as §1, §2, §3, §4, §5, §6, §7

[6] = system: mallow (Malva L., MALSS); assay: as above; conditions: 118 to 158 days after application, penoxsulam 7 and/or flazasulfuron 25 grams ai/ha
Experimental: as §1, §2, §3, §4, §5, §6, §7

[7] = system: round-leaved cranesbill (Geranium rotundifolium, GERRT); assay: as above; conditions: 118 to 158 days after application, penoxsulam 7 and/or flazasulfuron 25 grams ai/ha
Experimental: as §1, §2, §3, §4, §5, §6, §7

[8] = system: black nightshade (Solanum nigrum, SOLNI); assay: Postemergence field trial #3, visual weed control in vines; conditions: 83 to 158 days after application, penoxsulam 7 and/or flazasulfuron 25 grams ai/ha
Experimental: as §1, §2, §3, §4, §5, §6, §7

[9] = system: common groundsel (Senecio vulgaris, SENVU); assay: as above; conditions: 83 to 158 days after application, penoxsulam 7 and/or flazasulfuron 25 grams ai/ha
Experimental: as §1, §2, §3, §4, §5, §6, §7

[10] = system: common purslane (Portulaca oleracea, POROL); assay: as above; conditions: 83 to 158 days after application, penoxsulam 7 and/or flazasulfuron 25 grams ai/ha
Experimental: as §1, §2, §3, §4, §5, §6, §7

[11] = system: round-leaved cranesbill (Geranium rotundifolium, GERRT); assay: as above; conditions: 83 to 158 days after application, penoxsulam 7 and/or flazasulfuron 25 grams ai/ha
Experimental: as §1, §2, §3, §4, §5, §6, §7

Q: Which results are given for `COc1cnc(OC)n2nc(NS(=O)(=O)c3c(OCC(F)F)cccc3C(F)(F)F)nc12` [Penoxsulam]?
A: SOLNI (2) Obs - percent control observed [1]: 17%; SOLNI (1) Obs - percent control observed [1]: 1%; CHEAL Obs - percent control observed [2]: 0%; SETSS Obs - percent control observed [3]: 1%; SENVU Obs - percent control observed [4]: 3%; POROL Obs - percent control observed [5]: 0%; MALSS Obs - percent control observed [6]: 20%; GERRT Obs - percent control observed [7]: 13%; SOLNI Obs - percent control observed [8]: 70%; SENVU Obs - percent control observed [9]: 3%; POROL Obs - percent control observed [10]: 0%; GERRT Obs - percent control observed [11]: 13%

Q: What does the source list for `COc1cc(OC)nc(NC(=O)NS(=O)(=O)c2ncccc2C(F)(F)F)n1` [Flazasulfuron, 1-(4,6-dimethoxypyrimidin-2-yl)-3-(3-trifluoromethyl-2-pyridylsulfonyl)urea]?
A: SOLNI (2) Obs - percent control observed [1]: 58%; SOLNI (1) Obs - percent control observed [1]: 6%; CHEAL Obs - percent control observed [2]: 63%; SETSS Obs - percent control observed [3]: 73%; SENVU Obs - percent control observed [4]: 30%; POROL Obs - percent control observed [5]: 78%; MALSS Obs - percent control observed [6]: 53%; GERRT Obs - percent control observed [7]: 23%; SOLNI Obs - percent control observed [8]: 1%; SENVU Obs - percent control observed [9]: 30%; POROL Obs - percent control observed [10]: 78%; GERRT Obs - percent control observed [11]: 23%
